Results as given in the NIST ThermoML archive (doi:10.1021/acs.jced.5b00105).
Numbers after ± are expanded uncertainties.

Assay: xn = mol fraction of the nth substance listed
Conditions: for mass density / viscosity: 100 kPa, Liquid; for mass density: Vibrating tube method; for surface tension liquid-gas: Drop volume; for viscosity: Concentric cylinders viscometry

Compound: CCC1CCCCC1 [ethylcyclohexane] + CC(C)CC(C)(C)C
- mass density (298.15 K, x1 = 0.6005): 743.64 ± 0.16 kg/m3
- mass density (298.15 K, x1 = 0.7002): 753.47 ± 0.16 kg/m3
- mass density (298.15 K, x1 = 0.8003): 763.46 ± 0.16 kg/m3
- mass density (298.15 K, x1 = 0.8997): 773.57 ± 0.15 kg/m3
- mass density (298.15 K, x1 = 1): 783.97 ± 0.15 kg/m3
- surface tension liquid-gas (303.15 K, x1 = 0.1): 18.49 ± 0.24 mN/m
- surface tension liquid-gas (303.15 K, x1 = 0.2): 18.96 ± 0.24 mN/m
- surface tension liquid-gas (303.15 K, x1 = 0.3003): 19.61 ± 0.24 mN/m
- surface tension liquid-gas (303.15 K, x1 = 0.3997): 19.97 ± 0.24 mN/m
- surface tension liquid-gas (303.15 K, x1 = 0.5002): 20.62 ± 0.24 mN/m
- surface tension liquid-gas (303.15 K, x1 = 0.6005): 21.24 ± 0.24 mN/m
- surface tension liquid-gas (303.15 K, x1 = 0.7002): 22.12 ± 0.24 mN/m
- surface tension liquid-gas (303.15 K, x1 = 0.8003): 22.89 ± 0.24 mN/m
- surface tension liquid-gas (303.15 K, x1 = 0.8997): 23.75 ± 0.24 mN/m
- surface tension liquid-gas (303.15 K, x1 = 1): 24.55 ± 0.24 mN/m
- viscosity (303.15 K, x1 = 0.1): 0.489 ± 0.078 mPa·s
- viscosity (303.15 K, x1 = 0.2): 0.509 ± 0.082 mPa·s
- viscosity (303.15 K, x1 = 0.3003): 0.531 ± 0.085 mPa·s
- viscosity (303.15 K, x1 = 0.3997): 0.555 ± 0.089 mPa·s
- viscosity (303.15 K, x1 = 0.5002): 0.581 ± 0.093 mPa·s
- viscosity (303.15 K, x1 = 0.6005): 0.609 ± 0.098 mPa·s
- viscosity (303.15 K, x1 = 0.7002): 0.638 ± 0.1 mPa·s
- viscosity (303.15 K, x1 = 0.8003): 0.671 ± 0.11 mPa·s
- viscosity (303.15 K, x1 = 0.8997): 0.706 ± 0.11 mPa·s
- viscosity (303.15 K, x1 = 1): 0.745 ± 0.12 mPa·s
- mass density (303.15 K, x1 = 0.1): 692.57 ± 0.19 kg/m3
- mass density (303.15 K, x1 = 0.2): 701.62 ± 0.18 kg/m3
- mass density (303.15 K, x1 = 0.3003): 710.92 ± 0.18 kg/m3
- mass density (303.15 K, x1 = 0.3997): 720.25 ± 0.17 kg/m3
- mass density (303.15 K, x1 = 0.5002): 729.84 ± 0.17 kg/m3
- mass density (303.15 K, x1 = 0.6005): 739.57 ± 0.16 kg/m3
- mass density (303.15 K, x1 = 0.7002): 749.4 ± 0.16 kg/m3
- mass density (303.15 K, x1 = 0.8003): 759.41 ± 0.16 kg/m3
- mass density (303.15 K, x1 = 0.8997): 769.52 ± 0.15 kg/m3
- mass density (303.15 K, x1 = 1): 779.93 ± 0.15 kg/m3
- surface tension liquid-gas (308.15 K, x1 = 0.1): 18 ± 0.23 mN/m
- surface tension liquid-gas (308.15 K, x1 = 0.1999): 18.45 ± 0.23 mN/m
- surface tension liquid-gas (308.15 K, x1 = 0.3): 18.91 ± 0.23 mN/m
- surface tension liquid-gas (308.15 K, x1 = 0.4): 19.39 ± 0.23 mN/m
- surface tension liquid-gas (308.15 K, x1 = 0.5): 19.98 ± 0.24 mN/m
- surface tension liquid-gas (308.15 K, x1 = 0.6001): 20.65 ± 0.24 mN/m
- surface tension liquid-gas (308.15 K, x1 = 0.7004): 21.4 ± 0.24 mN/m
- surface tension liquid-gas (308.15 K, x1 = 0.8001): 22.11 ± 0.24 mN/m
- surface tension liquid-gas (308.15 K, x1 = 0.8994): 22.94 ± 0.24 mN/m
- surface tension liquid-gas (308.15 K, x1 = 1): 23.74 ± 0.24 mN/m
- viscosity (308.15 K, x1 = 0.1): 0.466 ± 0.075 mPa·s
- viscosity (308.15 K, x1 = 0.2): 0.485 ± 0.078 mPa·s
- viscosity (308.15 K, x1 = 0.3003): 0.505 ± 0.081 mPa·s
- viscosity (308.15 K, x1 = 0.3997): 0.527 ± 0.084 mPa·s
- viscosity (308.15 K, x1 = 0.5002): 0.55 ± 0.088 mPa·s
- viscosity (308.15 K, x1 = 0.6005): 0.577 ± 0.092 mPa·s
- viscosity (308.15 K, x1 = 0.7002): 0.604 ± 0.097 mPa·s
- viscosity (308.15 K, x1 = 0.8003): 0.634 ± 0.1 mPa·s
- viscosity (308.15 K, x1 = 0.8997): 0.666 ± 0.11 mPa·s
- viscosity (308.15 K, x1 = 1): 0.702 ± 0.11 mPa·s
